System: primary human T cells
Experiment: FD10 delivery in primary human T cells by flow cytometry
Format: cell-based
Conditions: human T cells with dex-NG and FD10, ROS scavenger added (FIG. 12a)
Method: FIG. 8. […] Human T cells were isolated from peripheral blood mononuclear cells and expanded for several weeks. […] As a control, cells were treated with nucleofection (program E0-115, Lonza Nucleofector, white bars) (a) Quantitative analysis of FD10 delivery efficiency using flow cytometry. Cells were stained with a membrane exclusion dye (TO-PRO-3 iodide) staining dead cells. TO-PRO-3 iodide negative cells were gated for delivery efficiency analysis. (b) Analysis of cell viability, 4 h after treatment, using an ATP-based viability assay (CellTiter-Glo®). (c-d) Quantitative analysis of FD10 delivery efficiency using flow cytometry on TO-PRO-3 iodide negative cells. The yield is determined as percentage living cells (based on CellTiter-Glo® assay), multiplied by the percentage of FD10-positive cells. Data shown as the mean±SD of three independent experiments (n=3). Statistical significance is reported where relevant (ns p≥0.05, * p<0.05, ** p≤0.01, *** p≤0.001, **** p≤0.0001).
Human T cells were seeded at 1×10^6 cells per well in a glass bottom 96-well plate (Greiner Bio-One GmbH, Vilvoorde, Belgium). […] Quantitative analysis of delivery efficiency was performed using flow cytometry on living (i.e. TO-PRO-3 negative) cells (CytoFLEX equipped with CytExpert software; Beckman Coulter, Krefeld, Germany). […]

OCCS [β-mercaptoethanol]
beneficial effect on cytosolic FD10 delivery as seen with NAC: could not be replicated

Reference: patent publication US20240165261A1, “MEANS AND METHOD FOR CYTOSOLIC DELIVERY” (Universiteit Gent, priority 2021, published 2024)
